These results are taken from patent US8975275B2, “Use of chemotherapeutic agents” (priority 1999, dated 2015).

Where a name gives a salt, the structure may show the parent alone.

One assay concerns bacteraemia. The following applies: systemic administration ten minutes prior to a dental extraction; cited from earlier work.
The test system of assay [1] is Staphylococcus aureus strains. The following applies: microorganisms isolated from the root canals after topical antibiotic treatment; cited from earlier work.
The next assay concerns Staphylococcus epidermis. The following applies: microorganisms isolated from the root canals after topical antibiotic treatment; cited from earlier work.
Assay [2] has as its system pulpitis due to carious diseases. As to the kind of experiment: Topical treatment of pulpitis due to carious diseases (patient cases). Type of assay: in vivo, human. The text has this: This is of great importance because, for example in the case of caries profunda, it is always necessary to decide whether softened residual dentin can be left over the pulp. By virtue of complete elimination of the microbes present, there is now a novel method of treatment wherein a thin softened dentin covering can be left if the compounds of formula (I) or formula (II) are used. This method of treatment makes it possible to free infected dentin layers of microbes and to stop pulp infections. This means that pain reactions are eliminated and pulp infections are to a certain extent cured. The pulp remains vital. The topical application of the compounds of formula (I) or formula (II) followed the removal of the carious dentin. The compounds of formula (I) or formula (II) were applied for example in aqueous solution, in a form of gelatinous consistency or on an inert carrier, for example by means of a cotton wool plug. The overlying cavity was occluded with a cement to seal the margins. The cotton wool plug was left in the cavity for three to six days. The compounds of formula (I) or formula (II) can be used in concentrations of 0.005 mg/ml to 200 mg/ml, Preferred concentrations are those ranging from 0.5 mg/ml to 150 mg/ml and particularly preferred concentrations are those ranging from 10 to 100 mg/ml.

Assay [3] has as its system infected root canal and periapical region. As to the kind of experiment: Topical treatment of the infected root canal and the periapical region (patient cases). Type of assay: in vivo, human. The procedure: In the clinical use of the compounds of formula (I) or formula (II), the pulp residues are removed first. The preparation of the canals is carried out with minimum discomfort for the patient. The canals are then flushed with hydrogen peroxide, Other methods of disinfection can be omitted. The compounds of formula (I) or formula (II), in a liquid form of administration, are then introduced into the toot canal under pressure using a cannula. The compounds of formula (I) or (II) are then injected in dissolved form or in a gelatinous form of administration. The root canal is subsequently occluded in the crown region, first with a cotton wool plug and then with zinc phosphate cement to seal the margins. If the canals are not gangrenous, the antibiotics remain in the canals for 3 days. […] The compounds of formula (I) or formula (II) can be used in concentrations of 0.005 mg/ml to 200 mg/ml.
In this application technique, which is known from intraligamental anaesthesia, the tooth is completely flooded with the antibacterial solution of the compounds of formula (I) or formula (II) in the entire root region.

Another assay deals with periodontal diseases. Put plainly: Topical treatment of periodontal diseases (patient cases). The format is in vivo, human. The text has this:
To do this, threads or so-called chips impregnated with solutions or gelatinous preparations of the compounds of formula (I) or formula (II) are inserted in the gingival pocket. A possible alternative is to use medicament carriers in the form of trays covering the teeth and gingiva. Before they are applied, the gelatinous applications of the compounds of formula (I) or formula (II) are instilled into the gingival pockets. In addition, the gel containing the compounds of formula (I) or formula (II) can also be placed in the medicament carrier. This use of medicament carriers is advantageous because the treatment time can be reduced by the rapid onset of action to about 15 to 30 minutes, so the treatment can be carried out directly in the surgery. The compounds of formula (I) or formula (II) can be used in concentrations of 0.005 mg/ml to 200 mg/ml. Preferred concentrations are those ranging from 0.5 mg/ml to 200 mg/ml and particularly preferred concentrations are those ranging from 10 to 150 mg/ml. Periodontal diseases can also be treated by administering the compounds of formula (I) or formula (II) by intraligamental injection, it being possible to use concentrations ranging from 0.005 mg/ml to 200 mg/ml, preferably from 0.5 mg/ml to 200 mg/ml. For the antibiotics commonly used nowadays, such as tetracyclines, an intraligamental injection is not reasonable since these compounds with a predominantly bacteriostatic action are quickly washed out due to the rapid fluid exchange in the periodontal interstice, and cannot develop their action. Tetra-cyclines can therefore only develop their effects via depot formulations. By contrast, the compounds of formula (I) or formula (II) have a very rapid and also bactericidal action, so their residence time in the periodontal interstice is sufficient to destroy the microbes.

The test system of the next assay is osseomucosal wounds. Put plainly: Topical treatment of osseomucosal wounds (patient cases). The format is in vivo, human. The text has this: Application is effected by flushing and/or by means of strip inserts impregnated with compounds of formula (I) or formula (II). They are to be used for example for postoperative infections following dentosurgical interventions (extractions). For this purpose the gel containing the compound of formula (I) or formula (II) is syringed directly into the extraction wound or onto a collagen sponge which remains in the extraction wound. The wound is closed for about half an hour by biting on a tampon. Prophylactic applications have been particularly successful after the extraction of teeth with focal infections, Liquid forms of administration suitable for flushing fistulae are those containing the compounds of formula (I) or formula (II) in concentrations of 0.005 mg/ml to 250 mg/ml. Preferred concentrations are those ranging from 0.5 to 100 mg/ml, Forms suitable for coating strips are gels containing the compounds of formula (I) or formula (II), as well as aqueous solutions or suspensions. These applications can contain the compounds of formula (I) or formula (II) in concentrations of 0.005 mg/ml to 200 mg/ml. Preferred concentrations for solutions are those ranging from 0.1 to 50 mg/ml Gelatinous forms of administration in concentrations of 25-150 mg/ml are preferred in the case of strip inserts.

As to `CO/N=C(\C(=O)N[C@@H]1C(=O)N2C(C(=O)O)=C(COC(N)=O)CS[C@H]12)c1ccco1` [cefuroxim], the “frequency of bacteraemia versus the untreated group” value in the assay on bacteraemia is recorded as “lower frequency”.

For the molecule `O=C(N[C@H](CO)[C@H](O)c1ccc([N+](=O)[O-])cc1)C(Cl)Cl` [chloramphenicol], in assay [1], the resistance of strains result is “majority of Staphylococcus aureus strains were resistant”.

For `CC[C@H]1OC(=O)[C@H](C)[C@@H](O[C@H]2C[C@@](C)(OC)[C@@H](O)[C@H](C)O2)[C@H](C)[C@@H](O[C@@H]2O[C@H](C)C[C@H](N(C)C)[C@H]2O)[C@](C)(O)C[C@@H](C)C(=O)[C@H](C)[C@@H](O)[C@]1(C)O` [erythromycin], the “increase of resistance after the treatment” value in the assay on Staphylococcus epidermis is on record as “three-fold”. The resistance of strains result in assay [1] was “majority of Staphylococcus aureus strains were resistant”.

Consider `CO/N=C1\CN(c2nc3c(cc2F)c(=O)c(C(=O)O)cn3C2CC2)CC1CN` (stereo not drawn) [gemifloxacin mesylate, 7-[(4Z)-3-(aminomethyl)-4-(methoxyimino)-1-pyrrolidinyl]-1-cyclopropyl-6-fluoro-1,4-dihydro-4-oxo-1,8-naphtyridine-3-carboxylic acid], for which the “clinical finding at check-up” value is listed as “tooth vital, patient symptom-free” in assay [2] (Patient A 1.13, gel 25 mg/ml, repetition of insert, check-up after 4 days) and “still slight discomfort” in assay [2] (Patient A 1.13, tooth 14, pellet insert gel 25 mg/ml, check-up after 3 weeks).

As to `Cc1c(F)c(N2CCNC(C)C2)cc2c1c(=O)c(C(=O)O)cn2C1CC1` (stereo not drawn) [grepafloxacin, 1-cyclopropyl-6-fluoro-1,4-dihydro-5-methyl-7-(3-methyl-1-piperazinyl)-4-oxo-3-quinolinecarboxylic acid], the “clinical finding at check-up” value is listed as “tooth vital, patient symptom-free” in assay [2] (Patient A 1.11, gel 25 mg/ml, after final filling, check-up after 4 weeks); “patient was symptom-free” in assay [2] (Patient A 1.11, tooth 22, pellet insert gel 25 mg/ml, check-up after 5 days); “teeth vital, patient symptom-free” in assay [2] (Patient A 1.12, gel 50 mg/ml, after final filling, check-up after 14 days); “teeth symptom-free” in assay [2] (Patient A 1.12, teeth 22, 23, pellet inserts gel 50 mg/ml, check-up after 1 week); “patient still symptom-free” in assay [3] (Patient A 3.16, after root filling, check-up after 1 week); “patient symptom-free” in assay [3] (Patient A 3.16, tooth 46 apical periodontitis, not gangrenous, root canal insert gel 50 mg/ml, check-up after 3 weeks). Also, the “clinical finding at check-up” value in assay [3] (Patient A 3.17, after root filling, check-up after 4 days) is “patient symptom-free”; in assay [3] (Patient A 3.17, tooth 32 apical periodontitis due to gangrene, solution 20 mg/ml + gel 20 mg/ml + intraligamental injection 50 mg/ml, check-up after 6 days) it was “no gangrenous odour, no bite discomfort”; in assay [3] (Patient A 3.23, tooth 34 fistulation, gangrenous, solution 50 mg/ml by paper point + intraligamental injection 50 mg/ml, check-up after 10 days), “patient symptom-free”; in the assay on periodontal diseases (Patient B 7, teeth 14-17 marginal periodontitis, thread insert gel 50 mg/ml + intraligamental injection 50 mg/ml, check-up after 9 days), “patient symptom-free, gingival regions and pockets inflammation-free”; in the assay on osseomucosal wounds (Patient C 8, apical granulomas, extraction (osteotomy), gauze with gel 50 mg/ml, check-up after 3 days), “patient is symptom-free”; in the assay on osseomucosal wounds (Patient C 9, same combined treatment, after root canal filling, check-up after 2 weeks), “patient symptom-free”. Further, in the assay with osseomucosal wounds (Patient C 9, tooth 14 pulpitis purulenta, fistulation, moxifloxacin hydrochloride solution 25 mg/ml flushing + grepafloxacin gel 25 mg/ml canal insert + moxifloxacin hydrochloride gel 25 mg/ml gauze insert, check-up after 6 days), the “clinical finding at check-up” value is given as “patient symptom-free”.

Take `C[C@H]1COc2c(N3CCN(C)CC3)c(F)cc3c(=O)c(C(=O)O)cn1c23` [levofloxacin, (3S)-9-fluoro-2,3-dihydro-3-methyl-10-(4-methyl-1-piperazinyl)-7-oxo-7H-pyrido[1,2,3-de]-1,4-benzoxazine-6-carboxylic acid]: the “clinical finding at check-up” value in assay [2] (Patient A 1.14, tooth 13, night pain, pellet inserts gel 50 mg/ml, check-up after 14 days) was “patient symptom-free, tooth vital”.

Take `COc1cccc(OC)c1C(=O)N[C@@H]1C(=O)N2[C@@H]1SC(C)(C)[C@@H]2C(=O)O` [methicillin]: the “increase of resistance after the treatment” value in the assay on Staphylococcus epidermis is reported as “two-fold”.

For `C[C@@H]1CN(c2c(F)c(N)c3c(=O)c(C(=O)O)cn(C4CC4)c3c2F)C[C@H](C)N1` [sparfloxacin, 5-amino-1-cyclopropyl-7-[(3R,5S)-3,5-dimethyl-1-piperazinyl]-6,8-difluoro-1,4-dihydro-4-oxo-3-quinolinecarboxylic acid], the “clinical finding at check-up” value in assay [2] (Patient A 1.16, gel 25 mg/ml, repetition of insert, check-up after 14 days) is “patient symptom-free, tooth vital”; in assay [2] (Patient A 1.16, tooth 46 reduced vitality, pellet insert gel 25 mg/ml, check-up after 4 days), “still slight sensitivity to heat”.

On to `NC1CCN(c2nc3c(cc2F)c(=O)c(C(=O)O)cn3-c2ccc(F)cc2F)C1` (stereo not drawn) [tosufloxacin tosylate, 7-(3-amino-1-pyrrolidinyl)-1-(2,4-difluorophenyl)-6-fluoro-1,4-dihydro-4-oxo-1,8-naphthyridine-3-carboxylic acid], for which the “clinical finding at check-up” value is listed as “patient symptom-free” in assay [3] (Patient A 3.20, tooth 47 apical periodontitis, not gangrenous, root canal insert gel 100 mg/ml, check-up after 8 days) and “patient symptom-free” in assay [3] (Patient A 3.22, tooth 35 apical periodontitis, not gangrenous, root canal insert gel 50 mg/ml, check-up after 10 days).

As for `N[C@@H]1[C@H]2CN(c3nc4c(cc3F)c(=O)c(C(=O)O)cn4-c3ccc(F)cc3F)C[C@@H]12` [trovafloxacin mesylate, 7-(1α,5α,6α-6-amino-3-azabicyclo[3.1.0]hex-3-yl)-1-(2,4-difluorophenyl)-6-fluoro-1,4-dihydro-4-oxo-1,8-naphthyridine-3-carboxylic acid], the “clinical finding at check-up” value in assay [2] (Patient A 1.15, tooth 44, night pain, pellet insert gel 50 mg/ml, check-up after 9 days) was “patient symptom-free, tooth vital”; in assay [3] (Patient A 3.18, tooth 34 apical periodontitis due to gangrene, gel 100 mg/ml + intraligamental injection 50 mg/ml, check-up after 12 days) it was “patient symptom-free”; in assay [3] (Patient A 3.19, tooth 11 apical periodontitis due to gangrene simplex, root canal insert solution 50 mg/ml, check-up after 3 weeks) it was “patient symptom-free, canal odour-free”; in the assay on periodontal diseases (Patient B 8, marginal periodontitis entire upper and lower jaw, medicinal splint gel 0.25 mg/ml 10 minutes/day for 6 days, check-up after 6 days), “patient symptom-free, inflammation phenomena no longer present”.

Regarding penicillin, the resistance of strains result in assay [1] is given as “majority of Staphylococcus aureus strains were resistant”.
